# In patent US6756368B1, “Use of cobalt chelates for treating or preventing virus infection” (The Trustees of Columbia University in the City of New York, priority 1999, dated 2004):
# Several values for one entry are separate records, joined by “and”; a condition that tells them apart may be missing. Identical values can stand only once. Entries after “also recorded” stand apart in the source; their conditions may differ. Like-named read-outs stand apart in the source and are kept apart here.
# How the values were obtained:
# [1] = system: Hela cells; settings: 100 μg/ml, 2 days
# [2] = system: poliovirus; type: cell-based, poliovirus strain P1 Mahoney
# [3] = system: HSV-1; experiment: Fractionation and in situ localization of virus DNA; type: cell-based, HSV-1 Glasgow strain 17
# [4] = system: HSV-1
# [5] = system: Ad-CMV-null; experiment: Fluorescence focus assay, AdCMV-null on 293T cells; type: cell-based, adenovirus
# Experimental: A549 or 293 cell monolayers were infected with Ad2 or Ad-CMV-null at 0.1 fluorescence focus units (FFUs) per cell for 2 h in 2% BCS DMEM in the presence and absence of 50 μg/ml CTC-96. At 29 h postinfection the plates were washed twice with PBS and fixed with methanol for 4 min at room temperature. Cells were washed twice with PBS, incubated in 500 μl 1:100 rabbit polyclonal anti-adenovirus serum in PBS for 30 min at room temperature and washed with PBS. Plates were then incubated in 500 μl 1:40 goat anti-rabbit IgG conjugated FITC in PBS. Foci were visualized using a Leitz Dialux microscope with an optical system for the selective visualization of FITC and then counted.
# 293T cells were plated on 35 mm dishes. Cells should be @5×10^6 cells/plate.
# 293T Cells were infected with AdCMV-null @ moi=0.1 (i.e. 0.1 FFU/cell)
# virus was diluted in D2 media +/− 50 μg/ml CTC96 D2=2% serum DMEM
# Plates were overlaid with 2.5 ml D2 +/− 50 μg/ml CTC96 and incub. @37° C. for 28 h (total)
# [6] = system: HSV-1; settings: in vivo; cited from earlier work
# [7] = system: vesicular stomatitis virus (VSV); type: cell-based, VSV strain Indiana
# [8] = system: influenza virus; experiment: Influenza virus plaque assay on MDCK cells; type: cell-based, influenza virus strain PR8; settings: magnitude not quantifiable
# [9] = system: VZV; experiment: VZV plaque formation; type: cell-based; settings: data not shown
# [10] = system: 293T cells; experiment: Cytotoxic effect of drug on 293T cells; type: cell-based; settings: 50 μg/ml, no virus
# Experimental: 2 plates of cells were incub. In D2 media +50 μg/ml CTC96 (to see cytotoxic effect of drug on 293T cells)
# Plates containing 293T cells +or − 50 μg/lm CTC96 were examined
# plates containing 293T cells +or − CTC96 were examined
# [11] = system: HSV-1; experiment: HSV-1 DNA replication in the presence of drug (Southern/slot blot); type: cell-based, HSV-1 Glasgow strain 17
# Experimental: (i) DNA preparation. Vero cells infected with MOI of 5 were infected and maintained in the presence and absence of 50 μg/ml CTC-96. Infected cells were harvested by freezing (−80° C.) at the indicated times postinfection. Total infected cell DNA was extracted as described (54).
# (ii) Slot blot analysis. Slot blot analysis was performed as previously described (55). Briefly, equal amounts of nuclear or cytoplasmic infected cell DNAs were blotted onto GeneScreen Plus using a MINIFOLD II Slot Blot System (Schleicher and Schuell, Keene, N.H.) and cross-linked with a Stratalinker 2400 (Stratagene, La Jolla, Calif.) using UV-irradiation. A 4.5 kB SalI-DdeI fragment from the α4 gene of HSV-1 which had been labeled with [α-32P]dCTP (NEN Life Sciences Products, Boston, Mass.) by random priming (Boehringer Mannheim, Indianapolis, Ind.) was hybridized to the nuclear and cytoplasmic DNAs and washed as specified by the manufacturer. Bands were visualized using autoradiography.
# A series of experiments were initiated to determine the point in the replication cycle where CTC-96 acts. Our first study examined the effects of drug on replication of virus DNA. Cells were infected at an moi of 5 in the presence of the absence of drug and harvested by trypsinization at 1 and 9 hr post infection. Virus DNA was extracted from cells by selective salt precipitation and the amount of virus-specific DNA was assayed after transfer to a nitrocellulose membrane by Southern blot hybridization using a phophorimager to quantitate signal.
# Cells were infected and at various intervals drug was added and left on the infected cell cultures until 24 hr pi. At this time samples were harvested and DNA extracted and analyzed as described above. […] By 12 hr post infection the bulk of DNA replication is complete as there is only a small difference between the hybridization signal generated in an untreated 24 hr sample when compared with a sample treated at 12 hr and analyzed at 24 hr post infection (FIG. 13).
# [12] = system: Vero cells; experiment: Cytotoxic effect on Vero cell monolayers
# [13] = system: HSV-1; type: cell-based, HSV-1 Glasgow strain 17
smiles,measurement,setting,value
CC(/C=C(/C)[O-])=NCCN=C(C)/C=C(/C)[O-].Cc1ncc[nH]1.Cc1ncc[nH]1.[Br-].[Co+3] [CTC-96],state of the HeLa cells,[1],dead
same,% Inhibition,"[2]; Poliovirus (P1/Mahoney), HeLa, 50 μg/ml of CTC-96, plaque assay",40%
same,inhibition of poliovirus,"[2]; first run, 50 μg/ml",42%
same,plaques recovered relative to −CTC-96,"[2]; first run, 50 μg/ml",58%
same,poliovirus plaques,"[2]; first run, dilution −6, 50 μg/ml in diluent, no drug in overlay",91 and 80
same,poliovirus plaques,"[2]; first run, dilution −7, 50 μg/ml in diluent, no drug in overlay",10 and 9
same,poliovirus plaques,"[2]; first run, dilution −8, 50 μg/ml in diluent, no drug in overlay",0
same,inhibition of poliovirus,"[2]; second run, 50 μg/ml",42% inhibition
same,poliovirus plaques,"[2]; second run, dilution −6, 50 μg/ml, drug also in overlay",165
same,poliovirus plaques,"[2]; second run, dilution −7, 50 μg/ml, drug also in overlay",18 and 16
same,nuclear accumulation of 3H labeled HSV-1 DNA (autoradiography),[3],prevented the nuclear accumulation
same,virus DNA in nuclear and cytoplasmic fractions,[3],very little detectable virus DNA in either fraction; also recorded: no significant increase in nuclear associated HSV-1 specific DNA
same,% Inhibition,"[4]; HSV-1 (17), Vero, 50 μg/ml of CTC-96, plaque assay",100%
same,No. of Plaques,"[4]; Initial [Drug] 0.016 μg/ml, Final [Drug] 0.016 μg/ml",114
same,No. of Plaques,"[4]; Initial [Drug] 50 μg/ml, Final [Drug] 0.0083 μg/ml",46
same,No. of Plaques,"[4]; Initial [Drug] 50 μg/ml, Final [Drug] 50 μg/ml",0
same,No. of Plaques,"[4]; Initial [Drug] 100 μg/ml, Final [Drug] 0.0016 μg/ml",23
same,No. of Plaques,"[4]; Initial [Drug] 100 μg/ml, Final [Drug] 100 μg/ml",0
same,resistance to HSV-1 after prior incubation of Vero cell monolayers,[4]; cells preincubated with 50 μg/ml CTC-96,partial resistance
same,HSV-1 plaque formation,[4]; concentrations of CTC-96 >50 μg/ml,completely inhibited
same,HSV-1 plaque formation,[4]; dilution of the drug after adsorption of the virus,only partially inhibited
same,plaque formation / infectivity after prior exposure of the virus to the drug,"[4]; virus incubated with 50 μg/ml 30 min, drug diluted prior to adsorption",no effect on plaque formation; also recorded: slightly reduced the infectivity
same,virus survived treatment,"[4]; virus suspension treated with drug 1 min, then diluted to final <1 ng/ml",~50%
same,HSV-1 plaque formation,[4]; ≧50 μg/ml of CTC-96,completely inhibited
same,adenovirus foci,"[5]; 50 μg/ml, 293T cells, AdCMV-null moi 0.1, 28 h",NO FOCI ON EITHER PLATE
same,% Inhibition,"[5]; Ad-CMV-null, 293T, 50 μg/ml of CTC-96, fluorescence focus assay",100%
same,effect on HSV-1 keratitis in the rabbit eye model,[6],reduce the corneal surface level of HSV-1 and facilitate the recovery from dendritic keratitis; also recorded: most potent inhibitory effect
same,inhibition of VSV,"[7]; 50 μg/ml, Vero cells",100%
same,% Inhibition,"[7]; VSV (Indiana), Vero, 50 μg/ml of CTC-96, plaque assay",100%
same,VSV plaques,"[7]; dilution −5, 50 μg/ml CTC96",0
same,VSV plaques,"[7]; dilution −6, 50 μg/ml CTC96",0
same,VSV plaques,"[7]; dilution −7, 50 μg/ml CTC96",0
same,effect on influenza virus infection,[8],positive virus inhibitory effect; also recorded: effective against influenza virus infection
same,VZV plaque formation,[9],inhibition of VZV plaque formation
same,cells rounded (CPE),[10]; examined after fixation at 28 h,at least 50%
same,cells off of plate,[10]; examined after staining,50%
same,remaining cells rounded up (CPE),[10]; examined after staining,50%
same,"virus DNA associated with infected cells at 1 hr post infection, versus no drug","[11]; 50 μg/ml from onset, harvest 1 hpi",no detectable difference; also recorded: equivalent amount of virus DNA
same,virus DNA replication on temporal addition of drug,"[11]; drug added at various times post infection, harvest 24 hr pi",increasingly more virus DNA replication as drug is added at later times post infection; also recorded: the amount of virus DNA replication increased
same,increase in accumulation of virus DNA from 1 to 9 hr post infection,"[11]; drug treated, moi 5",barely a two-fold increase
same,effect on the cell monolayer,"[12]; 50 μg/ml, after two days of incubation",severely affected
same,cytotoxicity on Vero cell monolayers,[12]; prolonged exposure (several days) to 50 μg/ml,cytotoxic effects; also recorded: cytotoxicity
same,syncytia formation by a syncytia forming virus,[13]; CTC-96 added at 1 or 10 hpi,unable to form syncytia
same,cell-to-cell spread (multi-celled foci),[13]; CTC-96 added at 8 hpi,unable to form multi-celled foci
